Source: ChEMBL document CHEMBL1141868, “Synthesis, biological activity, and X-ray crystal structural analysis of diaryl ether inhibitors of malarial enoyl acyl carrier protein reductase. Part 1: 4'-substituted triclosan derivatives” (Bioorg Med Chem Lett, 2005)

Experiments:
Plasmodium falciparum [1] = test: Inhibition of drug-sensitive Plasmodium falciparum 3D7 after 72 hrs; format: functional, organism-based; conditions: 3D7, 72 h
[2] = molecular target: T1, Enoyl-acyl-carrier protein reductase (Plasmodium falciparum, UniProt Q965D5); test: Inhibition of PfENR enzymatic activity
T1 sequence (Q965D5 whole entry): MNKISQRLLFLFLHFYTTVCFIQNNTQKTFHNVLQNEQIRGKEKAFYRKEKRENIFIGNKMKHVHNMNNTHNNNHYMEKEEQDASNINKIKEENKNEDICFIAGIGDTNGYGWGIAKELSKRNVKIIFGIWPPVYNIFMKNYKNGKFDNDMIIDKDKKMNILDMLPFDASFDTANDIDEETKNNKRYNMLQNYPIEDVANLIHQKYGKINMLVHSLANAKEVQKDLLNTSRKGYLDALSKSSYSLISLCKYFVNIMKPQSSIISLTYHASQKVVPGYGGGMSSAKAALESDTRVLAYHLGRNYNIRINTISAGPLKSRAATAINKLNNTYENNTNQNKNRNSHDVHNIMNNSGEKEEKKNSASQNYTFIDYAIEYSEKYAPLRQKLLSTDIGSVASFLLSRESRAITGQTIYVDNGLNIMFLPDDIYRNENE

Plasmodium falciparum [3] = test: Inhibition of drug-resistant Plasmodium falciparum Dd2 after 72 hrs; format: functional, organism-based; conditions: Dd2, 72 h

N#Cc1ccc(Oc2ccc(Cl)cc2O)c(Cl)c1
EC50 (Plasmodium falciparum [1]): 3.9 µM | IC50 [2]: 0.12 µM | EC50 (Plasmodium falciparum [3]): 5.4 µM

Oc1cc(Cl)ccc1Oc1ccc(Cl)cc1Cl [TRICLOSAN]
EC50 (Plasmodium falciparum [1]): 2.9 µM | IC50 [2]: 0.073 µM | EC50 (Plasmodium falciparum [3]): 3.9 µM

CN(C)C(=O)c1ccc(Oc2ccc(Cl)cc2O)c(Cl)c1
EC50 (Plasmodium falciparum [1]): 68.4 µM | IC50 [2]: 0.46 µM | EC50 (Plasmodium falciparum [3]): 95.7 µM

N#Cc1ccccc1CNc1ccc(Oc2ccc(Cl)cc2O)c(Cl)c1
EC50 (Plasmodium falciparum [1]): 26.7 µM | IC50 [2]: 0.56 µM | EC50 (Plasmodium falciparum [3]): 45.4 µM

O=C(c1ccc(Oc2ccc(Cl)cc2O)c(Cl)c1)N1CCCCC1
EC50 (Plasmodium falciparum [1]): 11.7 µM | IC50 [2]: 0.68 µM | EC50 (Plasmodium falciparum [3]): 18 µM

Oc1cc(Cl)ccc1Oc1ccc(NCc2ccccc2)cc1Cl
EC50 (Plasmodium falciparum [1]): 35.8 µM | IC50 [2]: 0.14 µM | EC50 (Plasmodium falciparum [3]): 47.5 µM

Oc1ccc(Oc2ccc(Cl)cc2O)c(Cl)c1
EC50 (Plasmodium falciparum [1]): 65.3 µM | IC50 [2]: 0.22 µM | EC50 (Plasmodium falciparum [3]): 87.8 µM

Oc1cc(Cl)ccc1Oc1ccc(-c2nn[nH]n2)cc1Cl
EC50 (Plasmodium falciparum [1]): 120 µM | IC50 [2]: 0.413 µM | EC50 (Plasmodium falciparum [3]): > 150 µM

O=S(=O)(Nc1ccc(Oc2ccc(Cl)cc2O)c(Cl)c1)c1ccccc1
EC50 (Plasmodium falciparum [1]): 55.1 µM | IC50 [2]: 0.37 µM | EC50 (Plasmodium falciparum [3]): 77.5 µM

O=S(=O)(Nc1ccc(Oc2ccc(Cl)cc2O)c(Cl)c1)C(F)(F)F
EC50 (Plasmodium falciparum [1]): > 120 µM | IC50 [2]: 0.14 µM | EC50 (Plasmodium falciparum [3]): > 120 µM

Nc1ccc(Oc2ccc(Cl)cc2O)c(Cl)c1
EC50 (Plasmodium falciparum [1]): 120 µM | IC50 [2]: 0.36 µM | EC50 (Plasmodium falciparum [3]): 140 µM

N#CCc1ccc(Oc2ccc(Cl)cc2O)c(Cl)c1
EC50 (Plasmodium falciparum [1]): 23.1 µM | IC50 [2]: 0.19 µM | EC50 (Plasmodium falciparum [3]): 36.4 µM

O=C(NO)c1ccc(Oc2ccc(Cl)cc2O)c(Cl)c1
EC50 (Plasmodium falciparum [1]): 31.2 µM | IC50 [2]: 1.2 µM | EC50 (Plasmodium falciparum [3]): 30.6 µM

O=C(Nc1ccc(Oc2ccc(Cl)cc2O)c(Cl)c1)N1CCOCC1
EC50 (Plasmodium falciparum [1]): 66.8 µM | IC50 [2]: 0.25 µM | EC50 (Plasmodium falciparum [3]): 86.4 µM

O=S(=O)(Nc1ccc(Oc2ccc(Cl)cc2O)c(Cl)c1)c1ccc2ccccc2c1
EC50 (Plasmodium falciparum [1]): 23.5 µM | IC50 [2]: 2.5 µM | EC50 (Plasmodium falciparum [3]): 33.9 µM

O=C(Nc1ccc(Oc2ccc(Cl)cc2O)c(Cl)c1)c1ccccc1
EC50 (Plasmodium falciparum [1]): 57.2 µM | IC50 [2]: 0.17 µM | EC50 (Plasmodium falciparum [3]): 83.9 µM

O=C(c1ccc(Oc2ccc(Cl)cc2O)c(Cl)c1)N1CCOCC1
EC50 (Plasmodium falciparum [1]): 63.5 µM | IC50 [2]: 0.2 µM | EC50 (Plasmodium falciparum [3]): 94.5 µM

O=C(c1ccc(Oc2ccc(Cl)cc2O)c(Cl)c1)N1CCCC1
EC50 (Plasmodium falciparum [1]): 20.7 µM | IC50 [2]: 0.81 µM | EC50 (Plasmodium falciparum [3]): 42.6 µM

O=C(O)c1ccc(Oc2ccc(Cl)cc2O)c(Cl)c1
EC50 (Plasmodium falciparum [1]): 110 µM | IC50 [2]: 0.55 µM | EC50 (Plasmodium falciparum [3]): 130 µM

O=[N+]([O-])c1ccc(Oc2ccc(Cl)cc2O)c(Cl)c1
EC50 (Plasmodium falciparum [1]): 2.1 µM | IC50 [2]: 0.18 µM | EC50 (Plasmodium falciparum [3]): 3.2 µM

CC(=O)Nc1ccc(Oc2ccc(Cl)cc2O)c(Cl)c1
EC50 (Plasmodium falciparum [1]): 52.2 µM | IC50 [2]: 0.057 µM | EC50 (Plasmodium falciparum [3]): 50.9 µM

O=S(=O)(Nc1ccc(Oc2ccc(Cl)cc2O)c(Cl)c1)c1cccc2ccccc12
EC50 (Plasmodium falciparum [1]): 34.3 µM | IC50 [2]: 0.59 µM | EC50 (Plasmodium falciparum [3]): 43.7 µM

NC(=O)c1ccc(Oc2ccc(Cl)cc2O)c(Cl)c1
EC50 (Plasmodium falciparum [1]): 96.3 µM | IC50 [2]: 0.12 µM | EC50 (Plasmodium falciparum [3]): 100 µM

CNC(=O)c1ccc(Oc2ccc(Cl)cc2O)c(Cl)c1
EC50 (Plasmodium falciparum [1]): 77.8 µM | IC50 [2]: 0.31 µM | EC50 (Plasmodium falciparum [3]): 100 µM

Oc1ccccc1CNc1ccc(Oc2ccc(Cl)cc2O)c(Cl)c1
EC50 (Plasmodium falciparum [1]): 4.5 µM | IC50 [2]: 0.32 µM | EC50 (Plasmodium falciparum [3]): 5.6 µM

NC(=O)Nc1ccc(Oc2ccc(Cl)cc2O)c(Cl)c1
EC50 (Plasmodium falciparum [1]): 110 µM | IC50 [2]: 0.16 µM | EC50 (Plasmodium falciparum [3]): 120 µM

O=C(NCc1ccccc1)c1ccc(Oc2ccc(Cl)cc2O)c(Cl)c1
EC50 (Plasmodium falciparum [1]): 7.5 µM | IC50 [2]: 3 µM | EC50 (Plasmodium falciparum [3]): 20.6 µM
